From patent US20230250066A1, “HERBICIDAL CINNOLINE DERIVATIVES” (SYNGENTA CROP PROTECTION AG, priority 2020, published 2023) come the findings set out here.

Type in all cases: in vivo
The test system of test [1] is Echinochloa crus-galli (ECHCG). As to the kind of experiment: Pre-emergence herbicidal test. The settings on record: 1000 g/ha, evaluated after 13 days.
Test [2] has as its system Setaria faberi (SETFA). As to the kind of experiment: Pre-emergence herbicidal test. Particulars: 1000 g/ha, evaluated after 13 days.
Test [3] deals with Amaranthus retoflexus (AMARE). The test can be described thus: Pre-emergence herbicidal test. The settings on record: 1000 g/ha, evaluated after 13 days.
In test [4] the test system is Abutilon theophrasti (ABUTH). The test can be described thus: Pre-emergence herbicidal test. The settings on record: 1000 g/ha, evaluated after 13 days.
Test [5] concerns Ipomoea hederacea (IPOHE). As to the kind of experiment: Pre-emergence herbicidal test. The settings on record: 1000 g/ha, evaluated after 13 days.
Test [6] has as its system Zea mays (ZEAMX). As to the kind of experiment: Pre-emergence herbicidal test. The settings on record: 1000 g/ha, evaluated after 13 days.
In test [7] the test system is Echinochloa crus-galli (ECHCG). The test can be described thus: Post-emergence herbicidal test. Particulars: 1000 g/ha unless otherwise stated, evaluated after 13 days. In a few lines: (§1)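 Scores on a five-point scale: 5=81-100%, 4=61-80%, 3=41-60%, 2=21-40%, 1=10-20%, 0=0% damage. These are assessed 13 days after spraying at 1000 g/ha unless stated.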
In test [8] the test system is Abutilon theophrasti (ABUTH). The test can be described thus: Post-emergence herbicidal test. Particulars: 1000 g/ha unless otherwise stated, evaluated after 13 days. In a few lines: as §1
For test [9], the system named is Zea mays (ZEAMX). As to the kind of experiment: Post-emergence herbicidal test. Particulars: 1000 g/ha unless otherwise stated, evaluated after 13 days. In a few lines:
as §1

Test [10] relates to Setaria faberi (SETFA). As to the kind of experiment: Post-emergence herbicidal test. The settings on record: 1000 g/ha unless otherwise stated, evaluated after 13 days. In a few lines:
as §1

The test system of test [11] is Amaranthus retoflexus (AMARE). As to the kind of experiment: Post-emergence herbicidal test. The settings on record: 1000 g/ha unless otherwise stated, evaluated after 13 days. In a few lines: as §1
In test [12] the test system is Ipomoea hederacea (IPOHE). The test can be described thus: Post-emergence herbicidal test. The settings on record: 1000 g/ha unless otherwise stated, evaluated after 13 days. In a few lines:
as §1

Take `CCOC(=O)c1nn(-c2ccc(OC(F)(F)F)cc2)c2cccc(S(=O)(=O)CC)c2c1=O` [Compound P22, ethyl 5-ethylsulfonyl-4-oxo-1-[4-(trifluoromethoxy)phenyl]cinnoline-3-carboxylate]: the “percentage damage caused to the plant, five-point scale, ECHCG” value in [1] is 0 (0=0%). Also, the “percentage damage caused to the plant, five-point scale, SETFA” value with Setaria faberi (SETFA) [2] is on record as 0 (0=0%). The “percentage damage caused to the plant, five-point scale, AMARE” value in [3] is 0 (0=0%). Also, the “percentage damage caused to the plant, five-point scale, ABUTH” value in [4] was 0 (0=0%). Further, the “percentage damage caused to the plant, five-point scale, IPOHE” value in test [5] is on record as 0 (0=0%). Further, the “percentage damage caused to the plant, five-point scale, ZEAMX” value in the test on Zea mays (ZEAMX) [6] is 0 (0=0%). In test [7], the “percentage damage caused to the plant, ECHCG (five-point scale)” value is given as 1 (1=10-20%). For the same molecule, the “percentage damage caused to the plant, ABUTH (five-point scale)” value in [8] was 1 (1=10-20%). Moreover, the “percentage damage caused to the plant, ZEAMX (five-point scale)” value in the test with Zea mays (ZEAMX) [9] is given as 0 (0=0%). For the same molecule, in the test with Setaria faberi (SETFA) [10], the “percentage damage caused to the plant, SETFA (five-point scale)” value is listed as 1 (1=10-20%). Also, the “percentage damage caused to the plant, AMARE (five-point scale)” value in test [11] is on record as 1 (1=10-20%). The “percentage damage caused to the plant, IPOHE (five-point scale)” value in [12] is given as 1 (1=10-20%).
Consider `COc1cc(S(C)(=O)=O)c2c(=O)c(C(=O)O)nn(-c3ccc(OC(F)(F)F)cc3)c2c1` [Compound P19, 7-methoxy-5-methylsulfonyl-4-oxo-1-[4-(trifluoromethoxy)phenyl]cinnoline-3-carboxylic acid], for which the “percentage damage caused to the plant, five-point scale, ECHCG” value in test [1] is reported as 2 (2=21-40%). The “percentage damage caused to the plant, five-point scale, SETFA” value with Setaria faberi (SETFA) [2] is on record as 5 (5=81-100%). The “percentage damage caused to the plant, five-point scale, AMARE” value in [3] is 1 (1=10-20%). The “percentage damage caused to the plant, five-point scale, ABUTH” value in test [4] was 0 (0=0%). The “percentage damage caused to the plant, five-point scale, IPOHE” value in test [5] was 0 (0=0%). The “percentage damage caused to the plant, five-point scale, ZEAMX” value in the test on Zea mays (ZEAMX) [6] is listed as 0 (0=0%). Further, in [7], the “percentage damage caused to the plant, ECHCG (five-point scale)” value is listed as 2 (2=21-40%). The “percentage damage caused to the plant, ABUTH (five-point scale)” value in test [8] was 1 (1=10-20%). Further, the “percentage damage caused to the plant, ZEAMX (five-point scale)” value in the test on Zea mays (ZEAMX) [9] is on record as 1 (1=10-20%). Also, the “percentage damage caused to the plant, SETFA (five-point scale)” value with Setaria faberi (SETFA) [10] is listed as 3 (3=41-60%). Further, the “percentage damage caused to the plant, AMARE (five-point scale)” value in [11] is given as 1 (1=10-20%). Besides, in test [12], the “percentage damage caused to the plant, IPOHE (five-point scale)” value is 1 (1=10-20%).
`CS(=O)(=O)c1cccc2c1c(=O)c(C(=O)OCCC#N)nn2-c1ccc(OC(F)(F)F)cc1` [Compound P73, 2-cyanoethyl 5-methylsulfonyl-4-oxo-1-[4-(trifluoromethoxy)phenyl]cinnoline-3-carboxylate]: the “percentage damage caused to the plant, five-point scale, ECHCG” value in [1] is on record as 3 (3=41-60%). In addition, in the test on Setaria faberi (SETFA) [2], the “percentage damage caused to the plant, five-point scale, SETFA” value is 5 (5=81-100%). The “percentage damage caused to the plant, five-point scale, AMARE” value in test [3] was 0 (0=0%). In addition, in test [4], the “percentage damage caused to the plant, five-point scale, ABUTH” value is given as 0 (0=0%). Further, the “percentage damage caused to the plant, five-point scale, IPOHE” value in [5] is recorded as 0 (0=0%). In addition, the “percentage damage caused to the plant, five-point scale, ZEAMX” value in the test with Zea mays (ZEAMX) [6] is given as 0 (0=0%). Also, in test [7], the “percentage damage caused to the plant, ECHCG (five-point scale)” value was 3 (3=41-60%). The “percentage damage caused to the plant, ABUTH (five-point scale)” value in test [8] is given as 0 (0=0%). Besides, the “percentage damage caused to the plant, ZEAMX (five-point scale)” value in the test with Zea mays (ZEAMX) [9] is on record as 1 (1=10-20%). For the same molecule, the “percentage damage caused to the plant, SETFA (five-point scale)” value in the test on Setaria faberi (SETFA) [10] was 4 (4=61-80%). The “percentage damage caused to the plant, AMARE (five-point scale)” value in test [11] is reported as 0 (0=0%). In addition, the “percentage damage caused to the plant, IPOHE (five-point scale)” value in [12] is given as 1 (1=10-20%).
On to `CCS(=O)(=O)c1cccc2c1c(=O)c(C(=O)O)nn2-c1ccc(OC(F)(F)F)cc1` [Compound P27, 5-ethylsulfonyl-4-oxo-1-[4-(trifluoromethoxy)phenyl]cinnoline-3-carboxylic acid], for which the “percentage damage caused to the plant, five-point scale, ECHCG” value in test [1] is 0 (0=0%). Besides, the “percentage damage caused to the plant, five-point scale, SETFA” value in the test with Setaria faberi (SETFA) [2] is 3 (3=41-60%). For the same molecule, the “percentage damage caused to the plant, five-point scale, AMARE” value in test [3] is given as 0 (0=0%). In addition, the “percentage damage caused to the plant, five-point scale, ABUTH” value in [4] is 0 (0=0%). In test [5], the “percentage damage caused to the plant, five-point scale, IPOHE” value is 0 (0=0%). In the test on Zea mays (ZEAMX) [6], the “percentage damage caused to the plant, five-point scale, ZEAMX” value was 1 (1=10-20%). Besides, in test [7], the “percentage damage caused to the plant, ECHCG (five-point scale)” value is given as 2 (2=21-40%). Besides, the “percentage damage caused to the plant, ABUTH (five-point scale)” value in test [8] is recorded as 1 (1=10-20%). In addition, the “percentage damage caused to the plant, ZEAMX (five-point scale)” value with Zea mays (ZEAMX) [9] is 1 (1=10-20%). Moreover, in the test with Setaria faberi (SETFA) [10], the “percentage damage caused to the plant, SETFA (five-point scale)” value was 2 (2=21-40%). For the same molecule, the “percentage damage caused to the plant, AMARE (five-point scale)” value in [11] is 0 (0=0%). Also, in test [12], the “percentage damage caused to the plant, IPOHE (five-point scale)” value was 0 (0=0%).
Take `CCOC(=O)c1nn(-c2ccc(OC(F)(F)F)cc2)c2cc(Br)cc(S(C)(=O)=O)c2c1=O` [Compound P11, ethyl 7-bromo-5-methylsulfonyl-4-oxo-1-[4-(trifluoromethoxy)phenyl]cinnoline-3-carboxylate]: in test [1], the “percentage damage caused to the plant, five-point scale, ECHCG” value is 0 (0=0%). Besides, the “percentage damage caused to the plant, five-point scale, SETFA” value with Setaria faberi (SETFA) [2] is 0 (0=0%). For the same molecule, the “percentage damage caused to the plant, five-point scale, AMARE” value in [3] was 0 (0=0%). Besides, the “percentage damage caused to the plant, five-point scale, ABUTH” value in test [4] is 0 (0=0%). The “percentage damage caused to the plant, five-point scale, IPOHE” value in test [5] was 0 (0=0%). Further, the “percentage damage caused to the plant, five-point scale, ZEAMX” value in the test on Zea mays (ZEAMX) [6] was 0 (0=0%). Further, in test [7], the “percentage damage caused to the plant, ECHCG (five-point scale)” value is on record as 0 (0=0%). The “percentage damage caused to the plant, ABUTH (five-point scale)” value in [8] was 1 (1=10-20%). Further, the “percentage damage caused to the plant, ZEAMX (five-point scale)” value with Zea mays (ZEAMX) [9] is recorded as 1 (1=10-20%). Besides, in the test with Setaria faberi (SETFA) [10], the “percentage damage caused to the plant, SETFA (five-point scale)” value is recorded as 1 (1=10-20%). In addition, the “percentage damage caused to the plant, AMARE (five-point scale)” value in [11] was 0 (0=0%). Besides, in test [12], the “percentage damage caused to the plant, IPOHE (five-point scale)” value was 0 (0=0%).
For `CS(=O)(=O)c1c(Br)ccc2c1c(=O)c(C(=O)O)nn2-c1ccc(OC(F)(F)F)cc1` [Compound P12, 6-bromo-5-methylsulfonyl-4-oxo-1-[4-(trifluoromethoxy)phenyl]cinnoline-3-carboxylic acid], the “percentage damage caused to the plant, five-point scale, ECHCG” value in test [1] was 1 (1=10-20%). Further, the “percentage damage caused to the plant, five-point scale, SETFA” value in the test with Setaria faberi (SETFA) [2] is 4 (4=61-80%). Moreover, the “percentage damage caused to the plant, five-point scale, AMARE” value in test [3] is reported as 0 (0=0%). The “percentage damage caused to the plant, five-point scale, ABUTH” value in test [4] is given as 1 (1=10-20%). In addition, the “percentage damage caused to the plant, five-point scale, IPOHE” value in test [5] was 0 (0=0%). The “percentage damage caused to the plant, five-point scale, ZEAMX” value in the test with Zea mays (ZEAMX) [6] was 0 (0=0%). Besides, the “percentage damage caused to the plant, ECHCG (five-point scale)” value in [7] is 3 (3=41-60%). The “percentage damage caused to the plant, ABUTH (five-point scale)” value in [8] is reported as 1 (1=10-20%). Further, in the test on Zea mays (ZEAMX) [9], the “percentage damage caused to the plant, ZEAMX (five-point scale)” value is 1 (1=10-20%). Also, the “percentage damage caused to the plant, SETFA (five-point scale)” value in the test on Setaria faberi (SETFA) [10] was 3 (3=41-60%). In test [11], the “percentage damage caused to the plant, AMARE (five-point scale)” value is given as 1 (1=10-20%). Further, the “percentage damage caused to the plant, IPOHE (five-point scale)” value in test [12] is reported as 0 (0=0%).
